Results on 4 compounds are retold here after patent US10953015B2, “Use of adenosine receptor signaling to regulate P-gp function” (CORNELL UNIVERSITY, priority 2016, dated 2021).

“Also recorded” adds a separate entry of the source.

Data set [1] has as its system P-gp. Kind of data set: P-gp expression in HEK293T kidney cell line (IFA MFI, western blot). Format: cell-based, human. Particulars: Lexiscan® 1, 0.5, 0.1 μM, 15 minutes. The method, then:
FIGS. 20A and 20B illustrate that Lexiscan® downregulates P-gp expression in the kidney cell line HEK293T while treatment with antagonist SCH58261 blocks Lexiscan®'s effects. […] HEK293T cells were grown to confluency on coverslips, and treated with varying concentrations of Lexiscan® (1, 0.5, and 0.1 μM) for 15 minutes. Cells were permeabilized and then stained with an antibody to P-gp (C219) and visualized under a fluorescent microscope. FIG. 20B is a graph of the MFI of P-gp in FIG. 20A. DMSO vs. Lexiscan® (“Lex”), *=P<0.05, Lexiscan® (“Lex”)+SCH58261 (“SCH”), ****P<0.0001.
HEK293T transformed kidney cells were treated with varying concentration of Lexiscan® (1, 0.5, 0.1 μM). Cells were lysed with lysis buffer ([…]), containing protease inhibitor cocktail. Samples were loaded on 7% SDS PAGE at 100V for 1 hour and transferred to nitrocellulose paper. The intensity of bands were analyzed by densitometry and plotted as a graph. Statistics: two-tailed student's t test: *=P<0.5, ****=P<0.0001.
Applicants investigated whether A2A AR agonists could modulate P-gp expression in the HEK293T human kidney cell line. HEK293T cells were grown to confluency on coverslips and treated with varying concentrations of Lexiscan, Lexiscan® plus the A2A antagonist (SCH58261), or vehicle control for 15 minutes. Cells were then permeabilized, stained with an antibody to P-gp, and visualized under a fluorescent microscope (FIG. 20A). The mean fluorescence intensity (MFI) of P-gp was quantified and graphed in FIG. 20B.
HEK293T cells were treated with various concentrations of Lexiscan, lysed, loaded onto an SDS-PAGE gel, transferred to a nitrocellulose membrane, and used for western blot analysis.
(In general: In western blotting, separated proteins are transferred to a membrane and probed.)

The subject of data set [2] is P-gp. Kind of data set: Epirubicin accumulation and P-gp staining in MCF7 cells (fluorescence microscopy). The data set is classed as cell-based, human. As to conditions: 1 μM. The method, then: MCF7 cells (human breast cancer cell line) were cultured in 24 well plates until they reached confluency. FIGS. 17A-17C are images of western blots of cells treated with vehicle control (i.e., DMSO) (“D”) or 1 μM of the broad spectrum AR agonist NECA (“N”) (FIG. 17A), 1 μM of the A2A AR agonist Lexiscan® (“L”) (FIG. 17B), or 1 μM of the A2B AR agonist BAY60 (“B”) (FIG. 17C), respectively for 24, 48, 72 hours. Cells were lysed with lysis buffer and expression levels of P-gp, MMP9, or VEGF analyzed by western blot. GAPDH was used as loading a control. FIG. 17D is a graph of experimental results showing that Lexiscan® down-regulates P-gp expression in MCF7 breast cancer cells. MCF7 breast cancer cells were treated with Lex (0.25 μM) concomitant with Rhodamine 123 (“Rho123”). […] Students T test, P<0.001. […] FIG. 17E is a fluorescence microscopy image showing MCF7 breast cancer cells grown on coverslips and treated with vehicle (DMSO, control), or A2 AR agonists, Lexiscan® (1 μM) or A1193 (1 μM) for 15 minutes in the presence of epirubicin. Cells were stained with an antibody to P-gp and mounted with DAPI. FIG. 17F is a graph of the fluorescent intensity quantified from FIG. 17E by measuring the mean fluorescent intensity (“MFI”) of epirubicin (pink) that is present in cell nuclei. ***=P<0.0001.
To further assess the modulation of A2A AR agonists on P-gp expression in MCF7 cells, applicants evaluated the accumulation of the P-gp substrate epirubicin in MCF7 cells. MCF7 cells were treated with DMSO (control), 1 μM Lexiscan®, or 1 μM of the A2A AR agonist A1193. […] In this case, the down-regulation of P-gp expression is equivalent to down-regulation of its function (Kim et al., “A2A Adenosine Receptor Modulates Drug Efflux Transporter P-Glycoprotein at the Blood-Brain Barrier,” J Clin Invest. 126(5):1717-33 (2016), which is hereby incorporated by reference in its entirety).

In data set [3] the test system is P-gp. Kind of data set: P-gp expression in Caco-2 human tumor cell line (IFA MFI, western blot). As to conditions: 1 μM for 30 minutes (IFA), 1, 0.5, 0.1 μM (western blot). Format: cell-based. The procedure:
FIG. 19A are fluorescence microscopy images of Caco-2 cells (originally isolated from a human primary colonic tumor) grown on coverslips and treated with Lexiscan® (1 μM) or A1193 (1 μM), or DMSO (vehicle) control for 30 minutes. Next, cells were fixed, permeabilized, and stained with an antibody to P-gp. After washing, cells were mounted with DAPI for nuclear staining. FIG. 19B is a graph of the MFI of P-gp. FIG. 19C is a graph of densitometric analysis of a western blot of Caco-2 cells treated with Lexiscan® in varying concentrations (1, 0.5, and 0.1 μM). Densitometric analysis was performed to quantify the amount of P-gp in western blot. Statistics: two tailed student's t test for FIG. 19B, *<0.5.
Applicants also evaluated whether A2A AR agonists can modulate P-gp expression in a human tumor cell line, Caco-2 cells. Briefly, Caco-2 cells (originally isolated from a human tumor) were grown on coverslips and treated with Lexiscan®, A1193, or vehicle control for 30 minutes. Cells were then fixed, permeabilized, and stained with an antibody to P-gp. After washing, cells were mounted with DAPI for nuclear staining (FIG. 19A). The mean fluorescence intensity (MFI) of P-gp was quantified and graphed in FIG. 19B.

Data set [4] addresses T1, P-gp (Mus musculus, UniProt P21447).
T1 construct: down-modulation of P-gp expression and function in brain vascular endothelial cells in WT mice; from tissue; host or cells: brain of WT mice
Kind of data set: Epirubicin brain accumulation assay. Format: in vivo. As to conditions: mice; 10 mg/kg epirubicin i.v. with 0.05 mg/kg Lexiscan® or 50 mg/kg PSC833 for 15 minutes. The procedure: FIG. 12A is a fluorescence microscopy image showing immunofluorescence images of brains from Lexiscan®-treated mice of WT brain at 15 and 30 minutes after Lexiscan® treatment. Frozen brain sections were stained with GLUT1 (red), or P-gp (green) and counterstained with DAPI (blue). FIG. 12B is a fluorescence microscopy image showing an enlarged image of FIG. 12A. FIG. 12C is a graph summarizing the experimental results of a brain epirubicin accumulation assay in the Lexiscan®- and vehicle-treated (control) mice. Briefly, 10 mg/kg of epirubicin was injected intravenously with or without 0.05 mg/kg of Lexiscan®. Mice were perfused with ice-cold PBS and sacrificed at different time points. The accumulation of epirubicin in the brain was measured using fluorometric excitation at 488 nm and emission at 590 nm. *P<0.05 (n=4, 2-tailed Student's t test). FIG. 12D are fluorescence microscopy images showing fluorescent microscopic analysis of epirubicin accumulation in the brains of mice treated with Lexiscan® or PSC833 (a functional P-gp inhibitor) compared with vehicle (control). 10 mg/kg of epirubicin was injected intravenously with or without 0.05 mg/kg of Lexiscan® or 50 mg/kg of PSC833 for 15 minutes. Mice were perfused with ice-cold PBS and sacrificed. Brain was sectioned for microscopic analysis for full-brain image, and focal zoomed image from cortex was laid as an inset. Epirubicin is in red, and nucleus was counterstained with DAPI (blue). FIG. 12E are graphs showing the quantified intensity of epirubicin from different regions of cortex (CTX), cerebellum (CRBL), and hippocampus (HPC) from brains of control, Lexiscan®-, or PSC833-injected animals and depicted as graphs. The scale bars indicate 100 μm in FIG. 12A; 50 μm in FIG. 12B, and 5 mm in FIG. 12D). ***P<0.001 (n=50, 2-tailed Student's t test).
FIG. 14A is a western blot of P-gp and BCRP1 from mouse brain at 2 and 18 hours after NECA treatment. FIG. 14B are graphs showing the enumeration of the expression intensity of P-gp and BCRP1 from the western blots shown in FIG. 14A. The intensity of the bands from NECA treatment group was divided by that of DMSO control. […] For fluorescence microscopy, frozen brain sections were stained with GLUT1 (red) or P-gp (green) and counterstained with DAPI (blue). […] The accumulation of epirubicin in the brain was measured using fluorometry, with excitation at 488 nm and emission at 590 nm. *P<0.05 (n=4, 2-tailed Student's t test).
For Lexiscan® study, 10 mg/kg of epirubicin was injected with or without Lexiscan® (0.05 mg/kg) at different time points, and mice were sacrificed. […] Samples were spun down at 17,000 g for 30 minutes, and the concentration for epirubicin was analyzed with fluorimetry with […].

For data set [5] the following is noted: cited from earlier work.

T1 sequence (P21447 whole entry): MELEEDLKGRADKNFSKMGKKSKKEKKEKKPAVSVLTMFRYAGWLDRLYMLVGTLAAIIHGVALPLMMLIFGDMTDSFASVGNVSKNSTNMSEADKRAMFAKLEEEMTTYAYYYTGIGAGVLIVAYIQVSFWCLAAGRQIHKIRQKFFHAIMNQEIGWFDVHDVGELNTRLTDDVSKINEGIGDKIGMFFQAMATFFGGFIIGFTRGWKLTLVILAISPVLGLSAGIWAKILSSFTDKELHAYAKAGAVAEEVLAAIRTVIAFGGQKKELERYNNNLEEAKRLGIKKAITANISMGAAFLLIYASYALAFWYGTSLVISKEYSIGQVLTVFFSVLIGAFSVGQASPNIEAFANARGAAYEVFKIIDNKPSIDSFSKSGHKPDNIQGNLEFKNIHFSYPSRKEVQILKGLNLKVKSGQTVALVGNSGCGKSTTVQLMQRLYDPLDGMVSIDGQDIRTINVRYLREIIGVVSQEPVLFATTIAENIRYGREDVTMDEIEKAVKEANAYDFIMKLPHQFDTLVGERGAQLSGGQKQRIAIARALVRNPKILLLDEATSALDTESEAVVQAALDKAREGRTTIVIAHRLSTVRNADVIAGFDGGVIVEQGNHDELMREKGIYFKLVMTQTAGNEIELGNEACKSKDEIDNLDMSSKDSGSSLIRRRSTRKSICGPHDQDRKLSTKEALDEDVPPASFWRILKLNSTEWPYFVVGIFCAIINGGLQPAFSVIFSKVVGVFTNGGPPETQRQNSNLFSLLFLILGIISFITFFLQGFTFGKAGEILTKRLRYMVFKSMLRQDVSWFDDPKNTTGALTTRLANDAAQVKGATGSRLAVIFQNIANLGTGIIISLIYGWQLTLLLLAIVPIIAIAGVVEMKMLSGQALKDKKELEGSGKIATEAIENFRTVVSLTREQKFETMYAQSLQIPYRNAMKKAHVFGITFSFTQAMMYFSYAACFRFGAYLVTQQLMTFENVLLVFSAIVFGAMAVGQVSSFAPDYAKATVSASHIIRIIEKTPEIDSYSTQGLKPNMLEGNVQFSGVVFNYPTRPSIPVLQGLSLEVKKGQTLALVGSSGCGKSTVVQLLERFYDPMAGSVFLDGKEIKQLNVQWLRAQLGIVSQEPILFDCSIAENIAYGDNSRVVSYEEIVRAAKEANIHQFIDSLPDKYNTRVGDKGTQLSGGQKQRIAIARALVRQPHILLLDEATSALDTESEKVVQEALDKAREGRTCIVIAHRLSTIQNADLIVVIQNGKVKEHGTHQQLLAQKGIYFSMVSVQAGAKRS

As for `Nc1nc2c(cnn2CCc2ccccc2)c2nc(-c3ccco3)nn12` [SCH58261, 2-(2-Furanyl)-7-(2-phenylethyl)-7H-pyrazolo[4,3-e][1,2,4]triazolo[1,5-c]pyrimidin-5-amine], the “P-gp expression (MFI)” value in data set [1] is “blocked the effects of Lexiscan®”.
On to `CCNC(=O)[C@H]1O[C@@H](n2cnc3c(NCC(c4ccccc4)c4ccccc4)nc(C(=O)NCCNC(=O)NC4CCN(c5ccccn5)CC4)nc32)[C@H](O)[C@@H]1O` [A1193, 6-(2,2-diphenylethylamino)-9-((2R,3R,4S,5S)-5-(ethylcarbamoyl)-3,4-dihydroxytetrahydrofuran-2-yl)-N-(2-(3-(1-(pyridin-2-yl)piperidin-4-yl)ureido)ethyl)-9H-purine-2-carboxamide], for which, in data set [2] (15 minutes), the “P-gp expression (antibody staining)” value is reported as “down-regulate P-gp expression”. In addition, in data set [2] (15 minutes in the presence of epirubicin), the “Epirubicin accumulation (MFI in cell nuclei)” value is recorded as “retained significantly more epirubicin than those treated with control”. The P-gp expression entry in data set [3] was “downregulate P-gp expression”.
Regarding `C/C=C/C[C@@H](C)C(=O)[C@H]1C(=O)N[C@@H](C(C)C)C(=O)N(C)CC(=O)N(C)[C@@H](CC(C)C)C(=O)N[C@@H](C(C)C)C(=O)N(C)[C@@H](CC(C)C)C(=O)N[C@@H](C)C(=O)N[C@H](C)C(=O)N(C)[C@@H](CC(C)C)C(=O)N(C)[C@@H](CC(C)C)C(=O)N(C)[C@@H](C(C)C)C(=O)N1C` [PSC833], in data set [4], the “Epirubicin fluorescent intensity in brain sections (cortex, cerebellum, hippocampus)” value is reported as “Significantly lower epirubicin intensity; also recorded: lower epirubicin intensity than even the control treatment group”.
Take `Nc1ncnc2c1ncn2[C@@H]1O[C@H](CO)[C@@H](O)[C@H]1O` [adenosine, 9-β-D-Ribofuranosyl-9H-purin-6-amine]: the half-life entry in data set [5] is “about 10 seconds”.
